Measured values from ChEMBL document CHEMBL4376805, “Plasmodium Purine Metabolism and Its Inhibition by Nucleoside and Nucleotide Analogues” (J Med Chem, 2019).
One block for each compound: values may come before it.

Legend:
[1] = Inhibition of Plasmodium falciparum HGXPRT expressed in Escherichia coli BL21 (DE3) assessed as inhibitor constant for enzyme-inhibitor-substrate complex formation using [5'-14C]IMP as substrate by scintillation counting method
[2] = target: T1, Hypoxanthine-guanine phosphoribosyltransferase (Homo sapiens, UniProt P00492); test: Inhibition of human HGPRT assessed as inhibitor constant for enzyme-inhibitor complex formation using [5'-14C]IMP as substrate by scintillation counting method
T1 sequence (P00492 whole entry): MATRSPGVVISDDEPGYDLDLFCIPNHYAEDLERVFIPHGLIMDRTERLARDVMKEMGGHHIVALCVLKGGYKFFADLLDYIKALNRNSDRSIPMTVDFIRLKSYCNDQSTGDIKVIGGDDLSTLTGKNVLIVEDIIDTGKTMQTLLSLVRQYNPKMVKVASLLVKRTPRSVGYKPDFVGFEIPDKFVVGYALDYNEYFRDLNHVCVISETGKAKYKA

[3] = target: GMP synthase [glutamine-hydrolyzing] (Homo sapiens, UniProt P49915)
Sequence of GMP synthase [glutamine-hydrolyzing] (P49915 whole entry): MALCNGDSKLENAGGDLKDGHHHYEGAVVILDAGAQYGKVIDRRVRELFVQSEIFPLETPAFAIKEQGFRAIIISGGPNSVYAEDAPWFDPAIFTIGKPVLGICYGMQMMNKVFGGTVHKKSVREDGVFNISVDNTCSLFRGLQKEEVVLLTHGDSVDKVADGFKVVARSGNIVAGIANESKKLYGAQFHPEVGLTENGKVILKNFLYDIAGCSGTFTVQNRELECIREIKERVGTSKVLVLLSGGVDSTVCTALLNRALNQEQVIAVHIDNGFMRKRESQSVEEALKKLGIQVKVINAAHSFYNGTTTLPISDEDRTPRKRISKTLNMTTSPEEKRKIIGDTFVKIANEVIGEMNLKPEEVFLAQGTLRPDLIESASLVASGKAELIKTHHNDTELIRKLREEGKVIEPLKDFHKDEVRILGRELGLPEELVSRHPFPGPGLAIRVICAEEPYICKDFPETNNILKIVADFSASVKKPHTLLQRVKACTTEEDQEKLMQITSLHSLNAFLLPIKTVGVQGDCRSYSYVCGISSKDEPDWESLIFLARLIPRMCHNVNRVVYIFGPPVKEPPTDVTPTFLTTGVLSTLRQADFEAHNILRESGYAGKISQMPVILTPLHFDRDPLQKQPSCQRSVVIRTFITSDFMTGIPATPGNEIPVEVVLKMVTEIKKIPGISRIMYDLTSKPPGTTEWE
Description: Inhibition of human GMP synthase

[4] = target: T2, GMP synthase [glutamine-hydrolyzing] (Plasmodium falciparum) (UniProt Q8IJR9); test: Inhibition of Plasmodium falciparum N-terminal His-tagged GMP synthase expressed in Escherichia coli AT2465 assessed as reduction in NADH formation incubated at 0.5 mM for 20 mins by spectrophotometric analysis relative to control
T2 sequence (whole entry): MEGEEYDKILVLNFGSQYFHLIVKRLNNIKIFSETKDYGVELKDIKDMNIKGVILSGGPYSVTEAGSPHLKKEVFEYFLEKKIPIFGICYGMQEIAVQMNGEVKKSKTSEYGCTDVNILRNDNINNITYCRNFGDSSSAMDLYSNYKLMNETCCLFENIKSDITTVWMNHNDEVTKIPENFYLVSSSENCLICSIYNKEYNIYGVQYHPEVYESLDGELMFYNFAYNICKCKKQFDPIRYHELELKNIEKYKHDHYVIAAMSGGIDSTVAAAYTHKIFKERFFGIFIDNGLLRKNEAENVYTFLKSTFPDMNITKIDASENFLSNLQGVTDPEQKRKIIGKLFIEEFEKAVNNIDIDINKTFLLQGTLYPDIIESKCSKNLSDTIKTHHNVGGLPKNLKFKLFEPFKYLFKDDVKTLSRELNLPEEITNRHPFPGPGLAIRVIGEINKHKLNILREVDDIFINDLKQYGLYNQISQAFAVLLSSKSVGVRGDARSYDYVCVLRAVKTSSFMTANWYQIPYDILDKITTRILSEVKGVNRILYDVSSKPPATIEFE

Plasmodium falciparum = test: Antimalarial activity against Plasmodium falciparum 3D7 assessed as reduction in parasite growth incubated for 48 hrs by Giemsa-staining counting based microscopic analysis; format: functional, organism-based; details: 3D7, 48 h

Ki [2]: 0.056 µM
Structure (SMILES): Nc1nc2c([C@@H]3N[C@H](COP(=O)(O)O)[C@@H](O)[C@H]3O)c[nH]c2c(=O)[nH]1
Ki [1]: 0.014 µM

IC50 [3]: 46.5 µM
Structure (SMILES): C=C1O[C@@](CO)(n2cnc3c(N)ncnc32)[C@H](O)[C@@H]1O [DECOYININE]

inhibition [4]: 25%
Structure (SMILES): Nc1ncnc2c1ncn2[C@]1(CO)O[C@H](CO)[C@@H](O)[C@H]1O [PSICOFURANINE]
IC50 (Plasmodium falciparum): 300 µM
